Experimental data published in patent publication US5922748A, “Indole derivatives as 5-HT agonists” (Glaxo Wellcome Inc., priority 1994, dated 1999).
Like-named read-outs stand apart in the source and are kept apart here. One block for each compound: values may come before it.

How the values were obtained:
[1] = biological target: T1, "5-HT1 -like" receptor mediating smooth muscle contraction (Oryctolagus cuniculus, UniProt P49144); test: Rabbit Saphenous Vein Assay (contraction of isolated ring segments); assay type: cell-based, male New Zealand White Rabbits; conditions: antagonism, given where compounds were found to be antagonists
T1 construct: Right and left lateral saphenous veins were obtained from male New Zealand White Rabbits; from tissue; host or cells: rabbit lateral saphenous vein ring segments
T1 sequence (P49144 whole entry): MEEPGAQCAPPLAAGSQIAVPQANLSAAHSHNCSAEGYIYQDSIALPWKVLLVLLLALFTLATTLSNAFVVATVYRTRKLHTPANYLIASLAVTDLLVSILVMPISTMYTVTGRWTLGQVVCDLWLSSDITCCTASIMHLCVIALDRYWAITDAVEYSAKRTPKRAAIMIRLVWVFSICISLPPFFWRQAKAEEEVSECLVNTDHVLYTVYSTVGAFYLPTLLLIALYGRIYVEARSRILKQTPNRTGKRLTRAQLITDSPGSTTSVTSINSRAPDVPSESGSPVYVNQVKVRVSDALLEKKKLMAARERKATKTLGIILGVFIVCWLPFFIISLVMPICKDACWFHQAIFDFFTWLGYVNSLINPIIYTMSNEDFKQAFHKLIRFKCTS

[2] = biological target: T1, "5-HT1 -like" receptor mediating smooth muscle contraction; test: as above; assay type: cell-based, male New Zealand White Rabbits; conditions: for Emax: read-out: (α)
Procedure: A: Rabbit Saphenous Vein Assay
Compounds of formula (I) prepared in Synthetic Examples 1 to 17 were each tested for their activity as agonists […] for the "5-HT1 -like" receptor mediating smooth muscle contraction by the following method.
[…]. Cocaine (30 μM) was present in the Krebs' solution throughout the experiment to prevent the uptake of amines by sympathetic neurones. The Krebs' solution was maintained at 37° C. and continually gassed with 95% oxygen/5% carbon dioxide. Increases in tissue isometric force were measure using Grass FT03C force displacement transducers and recorded on a Gould BD-212 pen recorder.
A force of 1.0 g was applied to each preparation and re-established twice during a subsequent period of 30 minutes.
Agonist activity was assessed by […] additions of the test compound, its concentration being increased in 0.5 log10 unit increments until further additions caused no further change in tissue force. In each experiment, the activity of the test compound was compared to the activity of 5-HT.

"5-HT1 -like" receptor = biological target: T2, "5-HT1 -like" receptor (Bos taurus, UniProt F1MGM3); test: Calf Caudate Assay (competition binding with [3H]-5HT, calf caudate nucleus membranes); conditions: 3.5 nM [3H]-5HT with 15 μM mesulergine and 15 μM 8-OH-DPAT, text says pIC50 converted by Cheng-Prusoff
T2 construct: Membranes were prepared from homogenates of calf caudate nucleus; from tissue; host or cells: calf caudate nucleus membranes

[3] = agonism, rabbit saphenous vein rings, 37° C., pH 7.4, compared to 5-HT, read-out: pA50 (converted)
[4] = value in parentheses after pA50 in Table 1, rabbit saphenous vein, compared to 5-HT

T2 sequence (F1MGM3 1-403): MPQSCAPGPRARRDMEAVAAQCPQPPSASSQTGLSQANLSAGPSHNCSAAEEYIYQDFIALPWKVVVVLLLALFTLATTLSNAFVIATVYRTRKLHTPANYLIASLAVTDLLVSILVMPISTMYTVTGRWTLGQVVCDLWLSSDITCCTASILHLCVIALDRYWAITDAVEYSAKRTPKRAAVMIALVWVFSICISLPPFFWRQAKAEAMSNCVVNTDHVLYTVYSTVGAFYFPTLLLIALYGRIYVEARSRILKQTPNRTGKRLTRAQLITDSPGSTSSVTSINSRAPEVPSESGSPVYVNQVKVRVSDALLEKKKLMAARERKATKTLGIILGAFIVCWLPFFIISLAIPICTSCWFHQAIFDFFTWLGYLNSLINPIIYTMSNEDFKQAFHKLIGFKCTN

Compound: 4-[3-(trans-3dimethylaminocyclobut-1-ylmethyl)-1H-indol-5-ylmethyl]-(4S)oxazolidin-2-one [Example 19]
- pKb [1]: 5.73

- EC50 [2, 3]: 3.63 µM
- Emax [2, 4]: 16%
Compound: CN(C)[C@H]1C[C@H](c2c[nH]c3ccc(CC4CNC(=O)O4)cc32)C1 (single isomer, unassigned; (+)) [Example 21, (+)-5-[3-trans-3-dimethylaminocyclobutyl-1H-indol-5-lmethyl]oxazolidin-2-one]

Compound: N[C@H]1C[C@@H](c2c[nH]c3ccc(C[C@H]4COC(=O)N4)cc32)C1 [Example 1 (cis), 4-[3-(cis-3-aminocyclobutyl)-5-indolymethyl]-(4S)-oxazolidin-2-one acetate]
- EC50 [2, 3]: 1.58 µM
- Emax ([2]; rabbit): 76%

Compound: N[C@H]1C[C@H](c2c[nH]c3ccc(C[C@H]4COC(=O)N4)cc32)C1 [Example 1 (trans), 4-[3-(trans-3-aminocyclobutyl)-5-indolylmethyl)-(4S)-oxazolidin-2-one acetate]
- EC50 [2]: 0.38 µM
- Emax ([2]; rabbit): 78%

Compound: N[C@H]1C[C@H](c2c[nH]c3ccc(C[C@H]4COC(=O)N4)cc32)C1 [Example 1, 4-[3-(trans-3-aminocyclobutyl)-5-indolylmethyl)-(4S)-oxazolidin-2-one]
- Activity P[A50 ] ("5-HT1 -like" receptor): 7.8

- Kb [1]: 1.91 µM
Compound: CN(C)[C@H]1C[C@H](c2c[nH]c3ccc(CCN4C(=O)CNC4=O)cc32)C1 [Example 3]

- EC50 [2, 3]: 1.91 µM
- Emax [2, 4]: 9%
Compound: CN(C)[C@H]1C[C@H](c2c[nH]c3ccc(C[C@H]4COC(=O)N4)cc32)C1 [Example 4, 4-[3-(trans-3-dimethylaminocyclobutyl)-1H-indol-5-ylmethyl]-(4S)oxazolidin-2-one]

- Kb [1]: 0.891 µM
Compound: CN(C)[C@H]1C[C@H](c2c[nH]c3ccc(CCN4C(=O)NC(C)(C)C4=O)cc32)C1 [Example 5]

- Kb [1]: 2.69 µM
Compound: CC1(C)NC(=O)N(CCc2ccc3[nH]cc([C@H]4C[C@H](N)C4)c3c2)C1=O [Example 6, 3-{2-[3-(trans-3-aminocyclobutyl)-1H-indol-5-yl]ethyl}-5,5-dimethylimidazolidin-2,4-dione]

- Kb [1]: 0.17 µM
Compound: CN(C)[C@H]1C[C@H](c2c[nH]c3ccc(CCN4C(=O)c5ccccc5C4=O)cc32)C1 [Example 7]

- pKb [1]: 7.18
Compound: CN(C)[C@H]1C[C@H](c2c[nH]c3ccc(CCN4C(=O)CC5(CCCCC5)CC4=O)cc32)C1 [Example 8, 3-{2-[3-(trans-3-dimethylaminocyclobutyl)-1H-indol-5-yl]ethyl}-3-azaspiro[5,5]undecane-2,4-dione]

- Kb [1]: 9.33 µM
Compound: CN(C)[C@H]1C[C@H](c2c[nH]c3ccc(CN4C(=O)CNC4=O)cc32)C1 [Example 9, 3-[3-(trans-3-dimethylaminocyclobutyl)-1H-indol-5-ylmethyl]imidazolidin-2,4-dione]

Compound: CNS(=O)(=O)Cc1ccc2[nH]cc([C@H]3C[C@H](N(C)C)C3)c2c1 [Example 10, N-methyl-[3-(trans-3-dimethylaminocyclobutyl)-1H-indol-5-yl]methanesulphonamide]
- Kb [2]: 5.62 µM

- Kb [1]: 11.2 µM
Compound: CN(C)[C@H]1C[C@H](c2c[nH]c3ccc(C[C@@H]4COC(=O)N4)cc32)C1 [Example 11, 4-[3-(trans-3-dimethylaminocyclobutyl)-1H-indol-5-ylmethyl]-(4R)oxazolidin-2-one]

- Kb [1]: 0.589 µM
Compound: CN(C)[C@H]1C[C@H](c2c[nH]c3ccc(CN4C(=O)NC(C)(C)C4=O)cc32)C1 [Example 12, 5,5-dimethyl-3-[3-(trans-3-dimethylaminocyclobutyl)-1H-indol-5-ylmethyl]imidazolidin-2,4-dione]

- EC50 [2, 3]: 14.1 µM
- Emax [2, 4]: 38%
Compound: CN1C(=O)OC[C@H]1Cc1ccc2[nH]cc([C@H]3C[C@H](N(C)C)C3)c2c1 [Example 13, 4-[3-(trans-3-dimethylaminocyclobutyl)-1H-indol-5-ylmethyl]-3-methyl(4R)oxazolidin-2-one]

Compound: CN(C)[C@H]1C[C@H](c2c[nH]c3ccc(C(N)=O)cc32)C1 [Example 14, 5-carboxamido-3-(trans-3-dimethylaminocyclobutyl)-1H-indole]
- EC50 [2]: 0.562 µM
- Emax ([2]; rabbit): 52%

- EC50 [2, 3]: 7.08 µM
- Emax [2, 4]: 29%
Compound: CN(C)[C@H]1C[C@@H](c2c[nH]c3ccc(C[C@H]4COC(=O)N4)cc32)C1 [Example 15]

Compound: N[C@H]1C[C@H](c2c[nH]c3ccc(Oc4ccccc4)cc32)C1 [Example 16, 5-phenoxy-3-(trans-3-aminocyclobutyl)-1H-indole]
- Kb [2]: > 0.316 µM

Compound: CN(C)[C@H]1C[C@H](c2c[nH]c3ccc(Oc4ccccc4)cc32)C1 [Example 17, 5-phenoxy-3-(trans-3-dimethylaminocyclobutyl)-1H-indole]
- Kb [2]: 0.24 µM

Compound: Cc1noc(-c2ccc3[nH]cc([C@H]4C[C@H](N(C)C)C4)c3c2)n1 [Example 18, 3-methyl-5-[3-(trans-3-dimethylaminocyclobutyl)indol-5-yl]-1,2,4-oxadiazole]
- Kb [2]: 0.955 µM

Compound: CN[C@H]1C[C@H](c2c[nH]c3ccc(C[C@H]4COC(=O)N4)cc32)C1 [Example 22, 4-[3-(trans-3-methylaminocyclobutyl)-1H-indol-5-ylmethyl]-(4S) oxazolidin-2-one]
- EC50 [2, 3]: 0.708 µM
- Emax [2, 4]: 72%

- Kb [1]: 1.26 µM
Compound: CN(C)[C@H]1C[C@H](c2c[nH]c3ccc(C(=O)NCc4ccccc4)cc32)C1 [Example 23]

- EC50 [2, 3]: 6.17 µM
- Emax [2, 4]: 48%
Compound: CN(C)[C@H]1C[C@H](c2c[nH]c3ccc(CCN4C(=O)c5ccccc5C4=O)cc32)C1 [Example 24, 2-{2-[3-(trans-3-dimethylaminocyclobutyl)-1H-indol-5-yl]ethyl} phthalamide]

Compound: CN(C)[C@H]1C[C@H](c2c[nH]c3ccc(CC(N)=O)cc32)C1 [Example 25, 3-[trans-3-dimethylaminocyclobutyl]-1H-indol-5-yl acetamide]
- Kb [2]: 16.6 µM

- Kb [1]: 3.89 µM
Compound: CN(C)[C@H]1C[C@H](c2c[nH]c3ccc(CC(=O)NCc4ccccc4)cc32)C1 [Example 26, N-benzyl-3-[trans-3-dimethylaminocyclobutyl]-1H-indol-5-yl acetamide]

- Kb [1]: 759 µM
Compound: Cc1noc(Cc2ccc3[nH]cc([C@H]4C[C@H](N(C)C)C4)c3c2)n1 [Example 27, 3-methyl-5-[3-(trans-3-dimethylaminocyclobutyl)-1H-indol-5-ylmethyl] 1,2,4-oxadiazole]

- Kb [1]: 6.61 µM
Compound: Cc1nc(Cc2ccc3[nH]cc([C@H]4C[C@H](N(C)C)C4)c3c2)n[nH]1 [Example 28, 3-methyl-5-[3-(trans-3-dimethylaminocyclobutyl)-1H-indol-5-ylmethl]1,2,4-triazole]
